Data reported in patent publication US10314806B2 (SICHUAN JIUZHANG BIOLOGICAL SCIENCE AND TECHNOLOGY CO., LTD., priority 2014, dated 2019).

What was measured:
H22 liver cancer = test: Inhibition of KM mice-transplanted tumor of H22 liver cancer; assay type: in vivo
Protocol: (1) Animal Kunming mice, half male and half female, body weight 16˜27 g.
Cell Lines H22 cell lines were mice liver cancer cells, and were subjected to suspension growth in RPMI-1640 media containing 10% calf serum, 100 U·ml^−1 penicillin, 100 μg·ml^−1 streptomycin, and cultured in an incubator at 37° C. under 5% CO2, followed by changing the medium and subculturing every two or three days.
Cell Culture H22 cells in exponential phase of growth were collected, centrifugated at 1000 rpm for 5 min, and washed twice. Viable cells were counted by trypan blue staining. The cells were quickly inoculated in abdominal cavity of KM mice, and after 7˜10 days, ascites were drawn and subcutaneously inoculated at the left forelimb armpit of mice at 0.2 ml/animal (containing about 2×10^7 cells). When tumor grew to 1 cm×1 cm×1 cm, mice were used in experiment. Mice tumors were aseptically stripped, and washed with Hank's solution thrice, to remove blood, fat and necrotic tissues. Tumors were cut to broken pieces of 1 mm×1 mm×1 mm, and washed with Hank's solution twice, to which physiological saline was added at a ratio of (1 g:3 ml), and then ground in a glass homogenizer and filtered by 80-100 mesh sieve to make a suspension of single cell. Viable cells were counted by trypan blue staining.
On the second day after inoculation, a dosage of 0.2 ml·10 g^−1 was administrated by intravenous injection (iv), once a day. When the average tumor weight in negative group was more than 1.0 g (tumor volume being about 0.5 cm^3), the experiment was stopped, and mice were sacrificed by cervical vertebrae removal and weighed. Tumors were stripped to calculate inhibitory rate.

human brain glioma = test: Inhibition of mice-transplanted human brain glioma; assay type: in vivo; conditions: for Inhibitmy rate / Tumor weight: 15 days, mice
Protocol: Human brain glioma cell lines were obtained from Key Laboratory of Transplant Engineering and Immunology, Ministry of health, West China Hospital, Sichuan University.
(1) Model establishment Mice were divided into groups, 10 mice for each group. The solution of brain glioblastoma cell lines was suitably diluted, and inoculated in cortex of left temporal lobe of mice, respectively.
Administration and intervention 24 h after inoculation, mice in each group were administrated by intraperitoneal injection. […] Each group was administrated for successive 15 days.
Determination of tumor inhibitory rate On the last day, the administration was stopped, and all mice were sacrificed and dissected. Tumor tissues were stripped and weighed. Tumor inhibitory rate %=(The mean tumor weight of control group−The mean tumor weight of drug groups)[The mean tumor weight of control group]×100%.
Statistical method The variance analysis of data was performed using the statistical program software package (SPSS13.0 for Windows), and p<0.05 was considered to be a statistically significant difference.

[1] = compared with the negative control group, obvious in the dosage groups of 10 mg/kg-60 mg/kg
[2] = 1 mg·kg^−1 intraperitoneal injection
[3] = 5 mg·kg^−1 intraperitoneal injection
[4] = 10 mg·kg^−1 intraperitoneal injection
[5] = 20 mg·kg^−1 intraperitoneal injection
[6] = 30 mg·kg^−1 intraperitoneal injection
[7] = 40 mg·kg^−1 intraperitoneal injection
[8] = 50 mg·kg^−1 intraperitoneal injection
[9] = 60 mg·kg^−1 intraperitoneal injection
[10] = 70 mg·kg^−1 intraperitoneal injection
[11] = 80 mg·kg^−1 intraperitoneal injection
[12] = 90 mg·kg^−1 intraperitoneal injection
[13] = 100 mg·kg^−1 intraperitoneal injection

## O=C(/C=C/c1ccc(O)c(O)c1)O[C@@H]1C[C@](O)(C(=O)O)C[C@@H](O)[C@H]1O [Chlorogenic acid of the present invention]
H22 liver cancer; 1 mg·kg^−1 iv once a day
  Inhibitory rate: 8.8%
  Tumor weight: 2.141 ± 0.333 g
H22 liver cancer; 5 mg·kg^−1 iv once a day
  Inhibitory rate: 24.7%
  Tumor weight: 1.768 ± 0.667 g
H22 liver cancer; 10 mg·kg^−1 iv once a day
  Inhibitory rate: 46.3%
  Tumor weight: 1.261 ± 0.388 g
H22 liver cancer; 20 mg·kg^−1 iv once a day
  Inhibitory rate: 54.8%
H22 liver cancer; 30 mg·kg^−1 iv once a day
  Inhibitory rate: 67.9%
  Tumor weight: 0.754 ± 0.071 g
H22 liver cancer; 40 mg·kg^−1 iv once a day
  Inhibitory rate: 72.2%
  Tumor weight: 0.653 ± 0.238 g
H22 liver cancer; 50 mg·kg^−1 iv once a day
  Inhibitory rate: 57.5%
  Tumor weight: 0.998 ± 0.207 g
H22 liver cancer; 60 mg·kg^−1 iv once a day
  Inhibitory rate: 42.9%
  Tumor weight: 1.341 ± 0.356 g
H22 liver cancer; 70 mg·kg^−1 iv once a day
  Inhibitory rate: 31.9%
H22 liver cancer; 80 mg·kg^−1 iv once a day
  Inhibitory rate: 24.1%
  Tumor weight: 1.782 ± 0.122 g
H22 liver cancer; 90 mg·kg^−1 iv once a day
  Inhibitory rate: 16.7%
  Tumor weight: 1.956 ± 0.581 g
H22 liver cancer; 100 mg·kg^−1 iv once a day
  Inhibitory rate: 11.5%
  Tumor weight: 2.078 ± 0.326 g
H22 liver cancer; [1]
  inhibitory action on KM mice-transplanted tumor of H22 liver cancer: obviously inhibitory action
Human brain glioma; [2]
  Inhibitmy rate: 13.30%
  Tumor weight: 1.258 ± 0.254 g
Human brain glioma; [3]
  Inhibitmy rate: 16.06%
  Tumor weight: 1.218 ± 0.187 g
Human brain glioma; [4]
  Inhibitmy rate: 52.45%
  Tumor weight: 0.690 ± 0.128 g
Human brain glioma; [5]
  Inhibitmy rate: 70.71%
Human brain glioma; [6]
  Inhibitmy rate: 68.57%
  Tumor weight: 0.456 ± 0.128 g
Human brain glioma; [7]
  Inhibitmy rate: 62.03%
  Tumor weight: 0.551 ± 0.087 g
Human brain glioma; [8]
  Inhibitmy rate: 56.65%
  Tumor weight: 0.629 ± 0.068 g
Human brain glioma; [9]
  Inhibitmy rate: 51.69%
  Tumor weight: 0.701 ± 0.256 g
Human brain glioma; [10]
  Inhibitmy rate: 31.22%
  Tumor weight: 0.998 ± 0.212 g
Human brain glioma; [11]
  Inhibitmy rate: 18.06%
Human brain glioma; [12]
  Inhibitmy rate: 13.23%
  Tumor weight: 1.259 ± 0.124 g
Human brain glioma; [13]
  Inhibitmy rate: 8.27%
  Tumor weight: 1.331 ± 0.156 g
Human brain glioma; [1]
  inhibitory action on mice-transplanted tumor of human brain glioma: obviously inhibitory action

## O=C(/C=C/c1ccc(O)c(O)c1)O[C@@H]1C[C@](O)(C(=O)O)C[C@@H](O)[C@H]1O [Commercially available chlorogenic acid, chlorogenic acid, reference compound]
H22 liver cancer; 1 mg·kg^−1 iv once a day
  Inhibitory rate: 5.1%
  Tumor weight: 2.228 ± 0.538 g
H22 liver cancer; 5 mg·kg^−1 iv once a day
  Inhibitory rate: 17.4%
  Tumor weight: 1.939 ± 0.357 g
H22 liver cancer; 10 mg·kg^−1 iv once a day, listed as Commercially availaavailable chlorogenic
  Inhibitory rate: 32.6%
H22 liver cancer; 20 mg·kg^−1 iv once a day, listed as Commercially availaavailable chlorogenic
  Inhibitory rate: 31.8%
H22 liver cancer; 30 mg·kg^−1 iv once a day
  Inhibitory rate: 31.9%
H22 liver cancer; 40 mg·kg^−1 iv once a day
  Inhibitory rate: 28.1%
H22 liver cancer; 50 mg·kg^−1 iv once a day
  Inhibitory rate: 23.4%
  Tumor weight: 1.799 ± 0.462 g
H22 liver cancer; 60 mg·kg^−1 iv once a day
  Inhibitory rate: 21.3%
  Tumor weight: 1.848 ± 0.741 g
H22 liver cancer; 70 mg·kg^−1 iv once a day
  Inhibitory rate: 14.6%
  Tumor weight: 2.005 ± 0.345 g
H22 liver cancer; 80 mg·kg^−1 iv once a day
  Inhibitory rate: 13.7%
  Tumor weight: 2.026 ± 0.611 g
H22 liver cancer; 90 mg·kg^−1 iv once a day
  Inhibitory rate: 9.8%
  Tumor weight: 2.118 ± 0.557 g
H22 liver cancer; 100 mg·kg^−1 iv once a day
  Inhibitory rate: 7.2%
  Tumor weight: 2.179 ± 0.341 g
Human brain glioma; [2]
  Inhibitmy rate: 9.10%
  Tumor weight: 1.319 ± 0.245 g
Human brain glioma; [3]
  Inhibitmy rate: 11.16%
  Tumor weight: 1.289 ± 0.289 g
Human brain glioma; [4]
  Inhibitmy rate: 19.09%
Human brain glioma; [5]
  Inhibitmy rate: 24.12%
Human brain glioma; [6]
  Inhibitmy rate: 30.74%
  Tumor weight: 1.005 ± 0.225 g
Human brain glioma; [7]
  Inhibitmy rate: 31.91%
  Tumor weight: 0.988 ± 0.025 g
Human brain glioma; [8]
  Inhibitmy rate: 23.85%
Human brain glioma; [9]
  Inhibitmy rate: 22.47%
Human brain glioma; [10]
  Inhibitmy rate: 15.58%
  Tumor weight: 1.225 ± 0.534 g
Human brain glioma; [11]
  Inhibitmy rate: 12.13%
  Tumor weight: 1.275 ± 0.043 g
Human brain glioma; [12]
  Inhibitmy rate: 11.30%
  Tumor weight: 1.287 ± 0.323 g
Human brain glioma; [13]
  Inhibitmy rate: 7.79%
  Tumor weight: 1.338 ± 0.187 g
